Here are results for 28 molecules from PMC6736568, “Discovery of Novel Anti-cryptosporidial Activities From Natural Products by in vitro High-Throughput Phenotypic Screening” (Frontiers in Microbiology, 2019).

Molecules are shown by their SMILES. Structures can show the parent of a compound that is named as a salt. Where two headings read alike, the source gives them in different places.

One data set in a line: in vitro. The conditions noted are these: for cytotoxicity at 41 h, 10 µM: human.
The test system of another data set is Cryptosporidium parvum. As to the kind of experiment: qRT-PCR assay of the growth of C. parvum in vitro in HCT-8 host cells (primary and secondary screening, EC50). The class given is cell-based. The conditions noted are these: Cryptosporidium parvum, HCT-8; for inhibition at 3.3 µM: secondary screening at 3.3 uM, read-out: % Inhibition (3.3 uM). A general note: Real-time PCR tracks product formation cycle by cycle.

Where [1] appears, read: primary screening at 10 uM, read-out: Inhibition (%).
Setting [2] is: primary screening at 10 uM, treated vs control.

Consider `CN1CC(=O)NC1=N` [CREATININE], for which, in the data set on HCT-8 host cells (Hs18S) (human, 41 h, 10 μM), the “Hs18S ΔCT” value is 0.00. For the same molecule, the cytotoxicity at 41 h, 10 µM in “in vitro” came to 0.2%. Also, the inhibition at 10 µM in the data set with Cryptosporidium parvum (setting [1]) came out at 20.5%.
With `CC(C)(O)CC[C@@H](O)[C@](C)(O)[C@H]1CC[C@@]2(O)C3=CC(=O)[C@@H]4C[C@@H](O)[C@@H](O)C[C@]4(C)[C@H]3CC[C@]12C` [CRUSTECDYSONE], the “Hs18S ΔCT” value in the data set with HCT-8 host cells (Hs18S) (setting [2]) was -0.15. The cytotoxicity at 41 h, 10 µM in the data set “in vitro” is -10.6%. Also, in the data set on Cryptosporidium parvum (setting [1]), the inhibition at 10 µM turned out to be 39.8%.
`C[C@H]1COC2=C1C(=O)C(=O)c1c2ccc2c1CCCC2(C)C` [CRYPTOTANSHINONE]: the “Hs18S ΔCT” value in the data set with HCT-8 host cells (Hs18S) (setting [2]) was found to be 0.18. Besides, the cytotoxicity at 10 µM in “in vitro” was 11.9%. Further, in the data set on Cryptosporidium parvum (setting [1]), the inhibition at 10 µM is 95.3%. Moreover, the inhibition at 3.3 µM in the data set with Cryptosporidium parvum is -85%.
For the molecule `COc1cc(/C=C/C(=O)CC(=O)/C=C/c2ccc(O)c(OC)c2)ccc1O` [CURCUMIN], in the data set on HCT-8 host cells (Hs18S) (setting [2]), the “Hs18S ΔCT” value is reported as 0.03. In “in vitro”, the cytotoxicity at 41 h, 10 µM was determined as 2.4%. Besides, in the data set with Cryptosporidium parvum (setting [1]), the inhibition at 10 µM was determined as 24.3%.
For `NCCSSCCN` [CYSTAMINE DIHYDROCHLORIDE], the “Hs18S ΔCT” value in the data set with HCT-8 host cells (Hs18S) (human, 41 h, 10 μM) is on record as -0.15. In “in vitro”, the cytotoxicity at 41 h, 10 µM is -11.2%. In the data set with Cryptosporidium parvum (setting [1]), the inhibition at 10 µM came to 5.08%.
Taken in the same sequence, the figures for `Nc1ccn([C@@H]2O[C@H](CO)[C@@H](O)[C@H]2O)c(=O)n1` [CYTIDINE] were -0.53, -44.6% and 36.7%.
For the molecule `O=c1cccc2n1C[C@@H]1CNC[C@H]2C1` [CYTISINE], in the data set with HCT-8 host cells (Hs18S), the “Hs18S ΔCT” value was -0.26. Besides, in the data set “in vitro”, the cytotoxicity at 10 µM was -20%. Besides, the inhibition at 10 µM with Cryptosporidium parvum was found to be 16%.
`O=c1c(-c2ccc(O)cc2)coc2cc(O)ccc12` [DAIDZEIN]: in the data set on HCT-8 host cells (Hs18S) (human, 41 h, 10 μM), the “Hs18S ΔCT” value worked out at 0.01. Also, in “in vitro”, the cytotoxicity at 41 h, 10 µM is 0.7%. The inhibition at 10 µM with Cryptosporidium parvum (setting [1]) came out at 39.2%.
In the same order, the values of `C=CC(C1=CC(=O)C(OC)=CC1=O)c1ccc(O)cc1` (stereo not shown) [DALBERGIONE, 4-METHOXY-4'-HYDROXY-] are 0.09, 6.1% and 30.3%.
For `C=CC(C1=CC(=O)C=CC1=O)c1ccccc1` (stereo not shown) [DALBERGIONE], in the data set on HCT-8 host cells (Hs18S) (human, 41 h, 10 μM), the “Hs18S ΔCT” value stood at 0.33. In the data set “in vitro”, the cytotoxicity at 41 h, 10 µM is 20.4%. Moreover, the inhibition at 10 µM with Cryptosporidium parvum (setting [1]) was 32.8%.
Consider `O=C1c2cccc(O)c2C(=O)c2c(O)cccc21` [DANTHRON], for which, in the data set with HCT-8 host cells (Hs18S) (setting [2]), the “Hs18S ΔCT” value is -0.12. Also, the cytotoxicity at 41 h, 10 µM in “in vitro” was -8.6%. Also, the inhibition at 10 µM in the data set on Cryptosporidium parvum (setting [1]) was 23%.
Take `CC(=O)N(O)CCCCCNC(=O)CCC(=O)N(O)CCCCCNC(=O)CCC(=O)N(O)CCCCCN` [DEFEROXAMINE MESYLATE]: the “Hs18S ΔCT” value in the data set with HCT-8 host cells (Hs18S) (human, 41 h, 10 μM) is listed as 0.31. Also, in the data set “in vitro”, the cytotoxicity at 41 h, 10 µM turned out to be 19.6%. Also, the inhibition at 10 µM in the data set with Cryptosporidium parvum (setting [1]) was -48.5%.
Taken in the same sequence, the figures for `CC(C)c1ccc2c(c1)CC[C@H]1[C@](C)(C(N)=O)CCC[C@]21C` [DEHYDROABIETAMIDE] were -0.01, -0.7% and 8.3%.
In the same order, the values of `C[C@H](CCC(=O)O)[C@H]1CC[C@H]2[C@@H]3C(=O)C[C@@H]4CC(=O)CC[C@]4(C)[C@H]3CC(=O)[C@]12C` [DEHYDROCHOLIC ACID] are -0.06, -4.2% and -24.5%.
Take `COc1cc2c(cc1OC)-c1c(oc3c4c(ccc3c1=O)OC(C(C)C)C4)CO2` (stereo not shown) [DEHYDRODIHYDROROTENONE]: the “Hs18S ΔCT” value in the data set on HCT-8 host cells (Hs18S) (setting [2]) is recorded as 0.06. The cytotoxicity at 10 µM in “in vitro” came to 4.4%. For the same molecule, in the data set on Cryptosporidium parvum (setting [1]), the inhibition at 10 µM was -21.6%.
Taken in the same sequence, the figures for `C[C@]12CC[C@H](O)CC1=CC[C@@H]1[C@@H]2CC[C@]2(C)C(=O)CC[C@@H]12` [DEHYDROEPIANDROSTERONE] were -0.03, -1.9% and 7.05%.
Taken in the same sequence, the figures for `C=C(C)[C@H]1Cc2c(ccc3c(=O)c4c(oc23)COc2cc(OC)c(OC)cc2-4)O1` [DEHYDROROTENONE] were -0.07, -4.9% and -38.5%.
Regarding `COc1ccc2c(c1)OCc1c-2oc2cc(OC)ccc12` [DEHYDROVARIABILIN], the “Hs18S ΔCT” value in the data set on HCT-8 host cells (Hs18S) (human, 41 h, 10 μM) was -0.42. Also, the cytotoxicity at 41 h, 10 µM in the data set “in vitro” was -33.6%. Moreover, in the data set with Cryptosporidium parvum (setting [1]), the inhibition at 10 µM was 22%.
Taken in the same sequence, the figures for `Nc1ncnc2c1ncn2[C@H]1C[C@H](O)[C@@H](CO)O1` [DEOXYADENOSINE] were -0.35, -27.3% and 44.5%.
In the same order, the values of `C[C@H](CCC(=O)O)[C@H]1CC[C@H]2[C@@H]3CC[C@@H]4C[C@H](O)CC[C@]4(C)[C@H]3C[C@H](O)[C@]12C` [DEOXYCHOLIC ACID] are 0.55, 31.7% and -39.8%.
In the case of `COc1cc(OC)c2c(OC)c(-c3ccc4c(c3)OCO4)c(=O)oc2c1` [DERRUSNIN], in the data set on HCT-8 host cells (Hs18S) (setting [2]), the “Hs18S ΔCT” value is -0.10. In addition, in “in vitro”, the cytotoxicity at 10 µM was -7.3%. The inhibition at 10 µM in the data set on Cryptosporidium parvum (setting [1]) turned out to be 14.8%.
For `COc1cc(OC)c2c(=O)c(-c3ccc4c(c3)OCO4)coc2c1` [DERRUSTONE], the “Hs18S ΔCT” value in the data set with HCT-8 host cells (Hs18S) (human, 41 h, 10 μM) is recorded as 0.39. Also, in “in vitro”, the cytotoxicity at 41 h, 10 µM was 23.9%. Further, in the data set with Cryptosporidium parvum (setting [1]), the inhibition at 10 µM stood at 61.3%. In addition, the inhibition at 3.3 µM with Cryptosporidium parvum is -77%.
Consider `C=CCSCC=C` [DIALLYL SULFIDE], for which, in the data set on HCT-8 host cells (Hs18S) (human, 41 h, 10 μM), the “Hs18S ΔCT” value is recorded as -0.01. Also, in the data set “in vitro”, the cytotoxicity at 41 h, 10 µM is -0.8%. Also, the inhibition at 10 µM in the data set on Cryptosporidium parvum (setting [1]) came to 19.6%.
With `COc1cc(C)c(C(=O)Oc2cc(C)c(C(=O)O)c(O)c2C)c(OC)c1C` [DIFFRACTAIC ACID], the “Hs18S ΔCT” value in the data set with HCT-8 host cells (Hs18S) (human, 41 h, 10 μM) is 0.91. Besides, the cytotoxicity at 41 h, 10 µM in the data set “in vitro” is 46.7%. In addition, the inhibition at 10 µM with Cryptosporidium parvum (setting [1]) is -3.8%.
On to `COc1cc(OC)c(-c2c(OC)cc(OC)cc2OC)c(OC)c1` [DIFUCOL HEXAMETHYL ETHER], for which the “Hs18S ΔCT” value in the data set with HCT-8 host cells (Hs18S) (setting [2]) amounted to 0.08. Moreover, in “in vitro”, the cytotoxicity at 10 µM was 5.1%. In the data set on Cryptosporidium parvum (setting [1]), the inhibition at 10 µM is -10.9%.
Taken in the same sequence, the figures for `C[C@@H]1CC[C@@]2(OC1)O[C@H]1[C@@H](O)[C@H]3[C@@H]4CC[C@H]5C[C@@H](O[C@@H]6O[C@H](CO)[C@H](O[C@@H]7O[C@H](CO)[C@@H](O)[C@H](O[C@@H]8OC[C@@H](O)[C@H](O)[C@H]8O)[C@H]7O[C@@H]7O[C@H](CO)[C@H](O)[C@H](O[C@@H]8O[C@H](CO)[C@@H](O)[C@H](O)[C@H]8O)[C@H]7O)[C@H](O)[C@H]6O)[C@H](O)C[C@]5(C)[C@H]4CC[C@]3(C)[C@H]1[C@@H]2C` [DIGITONIN] were -0.12, -8.8% and -16.6%.
With `C[C@]12CC[C@H](O)C[C@H]1CC[C@@H]1[C@@H]2C[C@@H](O)[C@]2(C)[C@@H](C3=CC(=O)OC3)CC[C@]12O` [DIGOXIGENIN], in the data set on HCT-8 host cells (Hs18S) (setting [2]), the “Hs18S ΔCT” value was found to be 0.33. Besides, the cytotoxicity at 10 µM in the data set “in vitro” was 19.2%. Further, the inhibition at 10 µM in the data set on Cryptosporidium parvum (setting [1]) worked out at 95.6%. The inhibition at 3.3 µM in the data set with Cryptosporidium parvum is 69%.
In the same order, the values of `Cc1c(O)c(O)cc2c1CC=C1[C@@]2(C)CC[C@@]2(C)[C@@H]3C[C@](C)(C(=O)O)CC[C@]3(C)CC[C@]12C` [DIHYDROCELASTROL] are 1.27, 58.7%, 92.5% and -66%.

A word on the inhibition: it is the drop in the measured response relative to a control, in per cent.
